The record followed here is patent US9957271B2, “Substituted bicyclic aza-heterocycles and analogues as sirtuin modulators” (GlaxoSmithKline, LLC, priority 2012, dated 2018).

Assay [1] deals with T1, SIRT1 (Homo sapiens, UniProt Q96EB6).
T1 sequence (Q96EB6 1-747): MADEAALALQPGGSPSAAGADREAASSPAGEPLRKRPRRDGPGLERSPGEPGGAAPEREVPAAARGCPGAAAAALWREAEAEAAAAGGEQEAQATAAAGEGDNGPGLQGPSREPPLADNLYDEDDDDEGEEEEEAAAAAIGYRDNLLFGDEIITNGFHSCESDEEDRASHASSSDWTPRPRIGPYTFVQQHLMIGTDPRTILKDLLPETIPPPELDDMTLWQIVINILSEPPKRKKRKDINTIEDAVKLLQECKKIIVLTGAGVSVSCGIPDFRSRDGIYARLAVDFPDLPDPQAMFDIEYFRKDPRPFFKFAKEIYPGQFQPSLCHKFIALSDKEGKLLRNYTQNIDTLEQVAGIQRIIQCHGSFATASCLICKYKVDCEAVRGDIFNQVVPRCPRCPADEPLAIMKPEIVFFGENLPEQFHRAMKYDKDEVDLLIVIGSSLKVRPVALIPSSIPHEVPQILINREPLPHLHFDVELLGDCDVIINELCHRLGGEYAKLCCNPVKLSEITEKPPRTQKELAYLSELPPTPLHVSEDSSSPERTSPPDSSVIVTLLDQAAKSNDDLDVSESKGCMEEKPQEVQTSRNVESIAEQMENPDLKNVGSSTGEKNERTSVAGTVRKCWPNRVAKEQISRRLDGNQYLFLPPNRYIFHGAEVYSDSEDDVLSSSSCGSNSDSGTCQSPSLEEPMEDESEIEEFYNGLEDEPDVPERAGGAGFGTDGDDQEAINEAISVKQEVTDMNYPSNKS
Briefly: TAMRA based mass spectrometry assay of SIRT1 activity. The following applies: TAMRA assay; for TAMRA EC1.5 (μM): concentration giving 150% activation of SIRT1; for Emax: percent maximum fold activation, read-out: TAMRA % Fold Act. Format: biochemical. The method, boiled down:
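Deacetylation of a biotinylated, TAMRA-tagged p53-based peptide (0.5 μM) by 10 nM His-tagged SIRT1 with 120 μM βNAD+, 25 °C for 25 min, pH 8 Tris-acetate buffer, across a compound concentration range. Quenched by formic acid and read by mass spec as product peptide or OAADPR; activity relative to DMSO reactions, nicotinamide defining maximal inhibition.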

Assay [2] concerns the target T1, SIRT1. Briefly: Trp mass spectrometry assay of SIRT1 activity. Format: biochemical. The following applies: Trp assay; for Trp EC1.5 (μM): concentration giving 150% activation of SIRT1; for Emax: percent maximum fold activation, read-out: Trp % Fold Act. Summed up: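 Activation readout: EC1.5 (concentration raising activity 50% over control) and percent maximum activation, from mass-spec quantitation of OAADPR or deacetylated Trp peptide. Reaction: 0.5 μM acetylated Trp peptide, 120 μM βNAD+, 10 nM bacterially expressed N-His SIRT1, pH 7.5 HEPES buffer with […], 25 min at 25° C.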

Structures are written as SMILES.

Take `Cc1nc2ccc(-c3ccccc3OC[C@H](O)CO)nn2c1C(=O)Nc1ccccn1` [Compound 815, (R)-6-(2-(2,3-dihydroxypropoxy)phenyl)-2-methyl-N-(pyridin-2-yl)imidazo[1,2-b]pyridazine-3-carboxamide]: at SIRT1 [1], the “TAMRA EC1.5 (μM)” value was “A (EC1.5<1 μM)” and the Emax was at least 350%. Besides, at SIRT1 [2], the “Trp EC1.5 (μM)” value is reported as “A (EC1.5<1 μM)” and the Emax was at least 350%.
For the compound `Cc1cccc(NC(=O)c2c(C)nc3ccc(-c4ccccc4OC[C@H](O)CO)nn23)n1` [Compound 816], on SIRT1 [1], the “TAMRA EC1.5 (μM)” value is “A (EC1.5<1 μM)” and the Emax is at least 350%. At SIRT1 [2], the “Trp EC1.5 (μM)” value is given as “A (EC1.5<1 μM)” and the Emax was at least 350%.
Turning to `Cc1cc(NC(=O)c2c(C)nc3ccc(-c4ccccc4OC[C@H](O)CO)nn23)nc(C)n1` [Compound 818], on SIRT1 [1], the “TAMRA EC1.5 (μM)” value is “A (EC1.5<1 μM)” and the Emax is at least 350%. Also, at SIRT1 [2], the “Trp EC1.5 (μM)” value is “B (EC1.5 1-25 μM)” and the Emax was under 350%.
Take `Cc1cnc(NC(=O)c2cnc3ccc(-c4ccccc4OC[C@H](O)CO)nn23)s1` [Compound 820]: on SIRT1 [1], the “TAMRA EC1.5 (μM)” value is listed as “B (EC1.5 1-25 μM)” and the Emax is at least 350%. For the same compound, on SIRT1 [2], the “Trp EC1.5 (μM)” value is listed as “B (EC1.5 1-25 μM)” and the Emax is under 350%.
Consider `Cc1nc2ccc(-c3cccc(OC[C@H](O)CO)c3)nn2c1C(=O)Nc1ccc(F)cn1` [Compound 821], for which, on SIRT1 [1], the “TAMRA EC1.5 (μM)” value is reported as “B (EC1.5 1-25 μM)” and the Emax was under 350%. Moreover, on SIRT1 [2], the “Trp EC1.5 (μM)” value is reported as “A (EC1.5<1 μM)” and the Emax is under 350%.
With `Cc1cnc(NC(=O)c2c(C)nc3ccc(-c4cccc(OC[C@H](O)CO)c4)nn23)s1` [Compound 823], on SIRT1 [1], the “TAMRA EC1.5 (μM)” value was “A (EC1.5<1 μM)” and the Emax was under 350%. At SIRT1 [2], the “Trp EC1.5 (μM)” value is “A (EC1.5<1 μM)” and the Emax is under 350%.
For `Cc1ncccc1NC(=O)c1c(C)nn2ccc(-c3ccccc3Br)nc12` [Compound 824], on SIRT1 [1], the “TAMRA EC1.5 (μM)” value was “B (EC1.5 1-25 μM)” and the Emax is at least 350%. Also, on SIRT1 [2], the “Trp EC1.5 (μM)” value is recorded as “A (EC1.5<1 μM)” and the Emax was at least 350%.
In the case of `Cc1cc(C)c(NC(=O)c2c(C)nn3ccc(-c4ccccc4Br)nc23)cn1` [Compound 826], at SIRT1 [1], the “TAMRA EC1.5 (μM)” value is on record as “B (EC1.5 1-25 μM)” and the Emax is at least 350%. At SIRT1 [2], the “Trp EC1.5 (μM)” value was “A (EC1.5<1 μM)” and the Emax was under 350%.
As for `Cc1cncc(NC(=O)c2c(C)nn3ccc(-c4ccccc4Br)nc23)c1` [Compound 827], at SIRT1 [1], the “TAMRA EC1.5 (μM)” value was “A (EC1.5<1 μM)” and the Emax was at least 350%. For the same compound, on SIRT1 [2], the “Trp EC1.5 (μM)” value is “A (EC1.5<1 μM)” and the Emax is under 350%.
As to `O=C(Nc1cnn2ccc(-c3ccccc3C(F)(F)F)nc12)c1cnc(O)cn1` [Compound 828], on SIRT1 [1], the “TAMRA EC1.5 (μM)” value is recorded as “A (EC1.5<1 μM)” and the Emax was at least 350%. In addition, on SIRT1 [2], the “Trp EC1.5 (μM)” value is on record as “C (EC1.5>25 μM)” and the Emax is under 350%.
For `Cc1cnc(NC(=O)c2c(C)nc3ccc(-c4ccccc4OC[C@H](O)CO)nn23)s1` [Compound 829], in that order: “A (EC1.5<1 μM)”, at least 350%, “A (EC1.5<1 μM)” and under 350%.
For `O=C(Nc1cnn2ccc(-c3ccccc3C(F)(F)F)nc12)c1cc(O)ncn1` [Compound 830], in that order: “A (EC1.5<1 μM)”, at least 350%, “C (EC1.5>25 μM)” and under 350%.
For `O=C(Nc1ccncc1F)c1cnc2ccc(-c3ccccc3OC[C@H](O)CO)nn12` [Compound 831], in that order: “B (EC1.5 1-25 μM)”, at least 350%, “B (EC1.5 1-25 μM)” and under 350%.
Regarding `Cc1cc(NC(=O)c2cnc3ccc(-c4ccccc4OC[C@H](O)CO)nn23)nc(C)n1` [Compound 832], at SIRT1 [1], the “TAMRA EC1.5 (μM)” value is given as “A (EC1.5<1 μM)” and the Emax was at least 350%. On SIRT1 [2], the “Trp EC1.5 (μM)” value was “B (EC1.5 1-25 μM)” and the Emax is under 350%.
For the compound `O=C(Nc1ccncn1)c1cnc2ccc(-c3ccccc3OC[C@H](O)CO)nn12` [Compound 833], at SIRT1 [1], the “TAMRA EC1.5 (μM)” value is “B (EC1.5 1-25 μM)” and the Emax was at least 350%. At SIRT1 [2], the “Trp EC1.5 (μM)” value is on record as “B (EC1.5 1-25 μM)” and the Emax was under 350%.
